The record followed here is article PMC5998080, “Structural and functional analysis of mRNA export regulation by the nuclear pore complex” (Nature Communications, 2018).

The target in assay [1] is T1, S. cerevisiae Gle1^CTD•Nup42^GBM (Saccharomyces cerevisiae, UniProt Q12315).
T1 construct: E. coli; His6 tag cleaved with PreScission; with Nucleoporin NUP42
T1 sequence (Q12315 243-538): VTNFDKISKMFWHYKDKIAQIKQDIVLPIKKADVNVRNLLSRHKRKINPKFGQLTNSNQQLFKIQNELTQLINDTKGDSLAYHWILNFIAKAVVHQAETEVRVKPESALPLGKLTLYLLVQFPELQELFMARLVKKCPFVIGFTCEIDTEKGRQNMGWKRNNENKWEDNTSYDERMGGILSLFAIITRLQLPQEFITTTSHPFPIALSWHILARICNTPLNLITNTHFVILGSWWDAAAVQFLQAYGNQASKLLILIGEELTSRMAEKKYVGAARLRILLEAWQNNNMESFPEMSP
T1 sequence (P49686 397-430 partner): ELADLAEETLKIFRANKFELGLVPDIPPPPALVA
The assay is described as follows: isothermal titration calorimetry. Type of assay: binding. For orientation: ITC needs no label: the signal is the heat of the interaction.

In assay [2] the target is T2, S. cerevisiae Gle1^CTD•Nup42^GBM•Dbp5 (Saccharomyces cerevisiae, UniProt P20449+Q12315).
T2 construct: with Nucleoporin NUP42
T2 sequence (Q12315 243-538): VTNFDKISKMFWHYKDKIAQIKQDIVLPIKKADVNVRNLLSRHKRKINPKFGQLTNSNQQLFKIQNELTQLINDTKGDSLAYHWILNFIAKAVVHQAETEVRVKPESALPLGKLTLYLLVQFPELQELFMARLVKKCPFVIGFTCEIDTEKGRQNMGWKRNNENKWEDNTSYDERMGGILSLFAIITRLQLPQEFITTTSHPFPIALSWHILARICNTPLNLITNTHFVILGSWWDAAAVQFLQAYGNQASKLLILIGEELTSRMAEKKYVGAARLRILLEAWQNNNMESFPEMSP
T2 sequence (P20449 1-482): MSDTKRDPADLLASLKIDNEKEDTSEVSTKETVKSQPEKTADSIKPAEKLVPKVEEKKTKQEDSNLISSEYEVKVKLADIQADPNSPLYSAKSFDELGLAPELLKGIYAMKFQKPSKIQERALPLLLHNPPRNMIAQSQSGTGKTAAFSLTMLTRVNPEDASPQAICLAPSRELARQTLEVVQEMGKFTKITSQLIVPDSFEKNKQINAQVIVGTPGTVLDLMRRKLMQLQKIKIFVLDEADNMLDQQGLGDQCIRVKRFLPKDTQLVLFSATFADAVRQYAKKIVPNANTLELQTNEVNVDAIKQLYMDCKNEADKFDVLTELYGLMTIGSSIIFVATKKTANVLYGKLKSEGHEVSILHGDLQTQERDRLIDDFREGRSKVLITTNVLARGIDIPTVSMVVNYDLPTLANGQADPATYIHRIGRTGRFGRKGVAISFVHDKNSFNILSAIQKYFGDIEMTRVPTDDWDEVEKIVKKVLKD
T2 sequence (P49686 397-430 partner): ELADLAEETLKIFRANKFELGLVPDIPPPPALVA
The assay is described as follows: size exclusion chromatography, complex formation. Particulars: 0.5 mM IP6, 20 mM Tris pH 8.0, 100 mM NaCl, 5 mM DTT; IP6 bridges Gle1 and Dbp5. Type of assay: binding. A general note: SEC sorts molecules by how far they enter the pores of the column.

Assay [3] has as its target T3, C. thermophilum Gle1^CTD•Nup42^GBM (Thermochaetoides thermophila, UniProt G0S7F3).
T3 construct: E. coli; tags cleaved; with Nucleoporin NUP42
The assay is described as follows: X-ray crystal structure ([…] Å). Type of assay: binding. The conditions noted are these: pH 6.3 MES, zinc sulfate; pocket on Gle1.

The next assay deals with T4, S. cerevisiae Gle1^CTD (Saccharomyces cerevisiae, UniProt Q12315).
T4 construct: C-terminal domain alone (borders in supplement); His6-scGle1CTD from E. coli, tag cleaved
T4 sequence (Q12315 243-538): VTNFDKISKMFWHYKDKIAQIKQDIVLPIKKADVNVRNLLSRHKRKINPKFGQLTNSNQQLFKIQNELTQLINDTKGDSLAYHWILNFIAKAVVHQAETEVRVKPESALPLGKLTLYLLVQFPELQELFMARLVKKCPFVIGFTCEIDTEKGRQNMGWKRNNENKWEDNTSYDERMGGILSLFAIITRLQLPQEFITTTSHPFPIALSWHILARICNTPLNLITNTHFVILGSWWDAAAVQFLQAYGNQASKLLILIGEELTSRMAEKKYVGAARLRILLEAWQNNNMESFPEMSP
The assay is described as follows: differential scanning fluorimetry. Type of assay: binding. Particulars: Tm without to with IP6 (25 µM); no Nup42; 20 mM Tris pH 8.0, 100 mM NaCl, 5 mM DTT.

Assay [4] addresses T5, H. sapiens DDX19^∆N53 (residues 54–479) (human, UniProt Q9UMR2 54-479).
T5 construct: human DEAD-box helicase DDX19 without the flexible N-terminal extension, residues 54-479; source: E. coli BL21-CodonPlus(DE3)-RIL, purified (Ni-NTA, HiTrap Q, Superdex 200); not shown: His6, N-terminal, cleaved
T5 sequence (looked up): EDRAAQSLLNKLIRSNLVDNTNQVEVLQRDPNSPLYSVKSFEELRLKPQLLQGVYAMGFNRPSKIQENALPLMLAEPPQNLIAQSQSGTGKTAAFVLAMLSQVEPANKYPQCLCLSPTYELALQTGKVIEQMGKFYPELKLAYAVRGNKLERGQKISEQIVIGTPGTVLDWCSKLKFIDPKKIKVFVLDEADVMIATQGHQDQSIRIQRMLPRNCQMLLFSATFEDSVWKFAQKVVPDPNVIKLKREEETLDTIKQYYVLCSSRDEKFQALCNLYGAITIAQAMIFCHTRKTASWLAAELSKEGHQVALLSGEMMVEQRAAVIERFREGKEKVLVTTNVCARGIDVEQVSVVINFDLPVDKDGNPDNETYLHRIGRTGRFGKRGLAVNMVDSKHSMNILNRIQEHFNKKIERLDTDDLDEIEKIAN
The assay is described as follows: crystal structure; H. sapiens Gle1^CTD•Nup42^GBM•DDX19^∆N53, reconstituted from equimolar purified Gle1^CTD•Nup42^GBM and DDX19^∆N53; with ADP 3.6 Å or AMP-PNP•Mg^2+ 3.4 Å. Particulars: both partners purified.

For a further assay, the target named is T6, H. sapiens DDX19 (human, UniProt Q9UMR2 1-479).
T6 construct: human DEAD-box helicase DDX19 (the printed residue numbers run to 479); also called hsDDX19; wild-type DDX19; source: E. coli BL21-CodonPlus(DE3)-RIL, purified (Ni-NTA, HiTrap Q, Superdex 200); not shown: His6, N-terminal, cleaved
T6 sequence (looked up): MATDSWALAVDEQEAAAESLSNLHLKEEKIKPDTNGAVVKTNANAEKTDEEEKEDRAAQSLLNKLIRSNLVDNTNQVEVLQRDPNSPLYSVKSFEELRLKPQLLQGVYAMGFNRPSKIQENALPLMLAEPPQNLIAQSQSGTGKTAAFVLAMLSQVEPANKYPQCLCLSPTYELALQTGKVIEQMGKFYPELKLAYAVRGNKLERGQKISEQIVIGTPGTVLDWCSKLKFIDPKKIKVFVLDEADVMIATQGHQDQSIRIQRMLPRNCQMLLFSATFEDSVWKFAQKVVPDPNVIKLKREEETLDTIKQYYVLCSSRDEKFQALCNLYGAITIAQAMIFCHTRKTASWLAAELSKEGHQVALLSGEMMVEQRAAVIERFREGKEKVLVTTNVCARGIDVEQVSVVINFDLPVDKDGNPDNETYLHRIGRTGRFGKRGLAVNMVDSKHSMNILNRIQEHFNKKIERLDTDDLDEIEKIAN
Kind of assay: SEC; human DDX19 with Gle1^CTD•Nup42^GBM, without and with 0.5 mM IP6 (IP6 partially reduced complex formation); 20 mM TRIS (pH 8.0), 100 mM NaCl, 5 mM DTT. The conditions noted are these: both partners purified.

T3 sequence (G0S381 441-557): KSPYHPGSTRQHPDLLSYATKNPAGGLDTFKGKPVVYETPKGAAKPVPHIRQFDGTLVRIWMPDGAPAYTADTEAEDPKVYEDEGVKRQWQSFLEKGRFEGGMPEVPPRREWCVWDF
T3 sequence (G0S7F3 216-529): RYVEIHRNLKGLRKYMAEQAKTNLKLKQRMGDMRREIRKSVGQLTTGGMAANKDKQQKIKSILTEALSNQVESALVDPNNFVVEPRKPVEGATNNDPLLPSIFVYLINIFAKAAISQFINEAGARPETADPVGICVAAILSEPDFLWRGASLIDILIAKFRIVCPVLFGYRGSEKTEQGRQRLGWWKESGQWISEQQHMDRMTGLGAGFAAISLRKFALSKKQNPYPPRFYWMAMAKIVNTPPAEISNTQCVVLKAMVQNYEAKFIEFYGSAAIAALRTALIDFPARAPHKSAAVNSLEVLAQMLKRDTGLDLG

For the molecule `O=P(O)(O)O[C@H]1[C@H](OP(=O)(O)O)[C@@H](OP(=O)(O)O)[C@H](OP(=O)(O)O)[C@@H](OP(=O)(O)O)[C@H]1OP(=O)(O)O` [IP6], in assay [1], the Kd (as a rule, the free concentration of one partner at which half of the binding sites on the other are occupied at equilibrium, for simple one-to-one binding) is ~3 nM. In addition, in assay [2], the “size exclusion chromatography, complex formation” value was “Dbp5 and Gle1^CTD•Nup42^GBM only formed a complex in the presence of IP6”. Also, in assay [3], the “X-ray crystal structure (2.17 Å)” value is “IP6 binds to C. thermophilum Gle1^CTD and to S. cerevisiae Gle1^CTD in a similar orientation”. For the same molecule, on S. cerevisiae Gle1^CTD, the Tm was 22 to 37 °C.

B1: H. sapiens Gle1^CTD•Nup42^GBM complex (complex, human)
chain 1: VQDITMQWYQQLQDASMQCVLTFEGLTNSKDSQAKKIKMDLQKAATIPVSQISTIAGSKLKEIFDKIHSLLSGKPVQSGGRSVSVTLNPQGLDFVQYKLAEKFVKQGEEEVASHHEAAFPIAVVASGIWELHPRVGDLILAHLHKKCPYSVPFYPTFKEGMALEDYQRMLGYQVKDSKVEQQDNFLKRMSGMIRLYAAIIQLRWPYGNRQEIHPHGLNHGWRWLAQILNMEPLSDVTATLLFDFLEVCGNALMKQYQVQFWKMLILIKEDYFPRIEAITSSGQMGSFIRLKQFLEKCLQHKDIPVPKGFLTSSFWRS
chain 2: IIATDNVLFTPRDKLTVEELEQFQSKKFTLGKIPLKPPPLELLNV
notes: human Gle1 (splice variant Gle1B), C-terminal domain, residues 382-698; Chains as m16 and m17; also called hsGle1^CTD•His6-hsNup42^GBM; source: E. coli BL21-CodonPlus(DE3)-RIL, co-expressed, purified (Ni-NTA, heparin, Superdex 75); not shown: His6, N-terminal, cleaved
As for B1, the binding result (in assay [4]; in the assay with H. sapiens DDX19) was “binds” in each case.

B2: H. sapiens Gle1 C-terminal domain (Gle1^CTD, residues 382–698) (domain or fragment, human, UniProt Q53GS7 382-698, looked up)
chain: VQDITMQWYQQLQDASMQCVLTFEGLTNSKDSQAKKIKMDLQKAATIPVSQISTIAGSKLKEIFDKIHSLLSGKPVQSGGRSVSVTLNPQGLDFVQYKLAEKFVKQGEEEVASHHEAAFPIAVVASGIWELHPRVGDLILAHLHKKCPYSVPFYPTFKEGMALEDYQRMLGYQVKDSKVEQQDNFLKRMSGMIRLYAAIIQLRWPYGNRQEIHPHGLNHGWRWLAQILNMEPLSDVTATLLFDFLEVCGNALMKQYQVQFWKMLILIKEDYFPRIEAITSSGQMGSFIRLKQFLEKCLQHKDIPVPKGFLTSSFWRS
notes: human Gle1 (splice variant Gle1B), C-terminal domain, residues 382-698; also called hsGle1^CTD; source: E. coli BL21-CodonPlus(DE3)-RIL, co-expressed with His6-hsNup42^GBM, purified (Ni-NTA, heparin, Superdex 75)
In the case of B2, the binding result (in assay [4]; with H. sapiens DDX19) was “binds” throughout.
